Columns and labels:
[1] = Benzoate oxidation in the presence of peroxide and ascorbate (ROS assay); conditions: 50 μM complex, 50 μM H2O2, 50 μM ascorbate, pH 7.2
Experimental: Benzoate oxidation with 50 μM complex, 50 μM H2O2 and 50 μM ascorbate at pH 7.2. [Fe(EDTA)]^− oxidation is set at 100%.
It is desirable that the Fe(III) complex remain in the trivalent oxidation state and not be reduced by peroxide, superoxide, ascorbate or by glutathione at concentrations present in the extracellular medium of cells such as, for example, mammalian cells (e.g., human cells). Normally, a redox potential more negative than zero mV (<0 mV) versus NHE is sufficient. If the complex were to be reduced to Fe(II) and the Fe(II) complex and the complex has a positive redox potential versus NHE, reactive oxygen species may be produced. For example, [Fe(EDTA)]− has a redox potential of approximately 300 mV and produces ROS as shown by the assay in FIG. 7.

[2] = versus NHE; cited from earlier work
[3] = Phantom (in vitro) MR imaging: T1 and T2 relaxivity; format: physicochemical; conditions: for r1 / r1 with HSA: 37° C.
Experimental: Preparation of Samples for Phantom MR Imaging: Samples for phantom imaging experiments contained 50-500 μM complex, 20 mM HEPES and 100 mM NaCl. For samples containing Human Serum Albumin (HSA), 35 mg of HSA was added to these solutions. The pH of all solutions was adjusted to 7.0.
Phantom (in vitro) imaging at 4.7 T. MRI acquisitions were performed using a General Electric 4.7 T/33 cm horizontal bore magnet (GE NMR instruments, Fremont, Calif.) incorporating AVANCE digital electronics (Bruker BioSpec platform with ParaVision v 3.0.2 acquisition software, Bruker Medical, Billerica, Mass.). […] T1 relaxation rates (r1) were acquired utilizing a saturation recovery, spin-echo (SE) sequence with a fixed echo time (TE), 10 ms and repetition times (TR) ranging from 75 to 8000 ms. Signal intensities at each repetition time were sampled by taking the mean intensity within regions of interest (ROI's) using commercially available image processing software (Analyze 7.0, AnalyzeDirect, Overland, Kans.), and r1 and SMAX were calculated by nonlinear fitting of the equation using Matlab's Curve Fitting Toolbox (Matlab 7.0, MathWorks Inc., Natick, Mass.). The T1 relaxivity for each complex was then determined by obtaining the slope of the compound's molar concentration vs r1 via linear regression fitting of the data. Similarly, T2 relaxation rates (R2) were acquired using a multiecho, Carr-Purcell-Meiboom Gill (CPMG) SE sequence with a fixed TR of 2500 ms and TE times ranging from 15 to 300 ms, NEX) 2. R2 and SMAX were calculated as described above using the equation As before, the T2 relaxivity was determined by obtaining the slope of concentration vs r2 via linear regression fitting of the data.
Relaxivity values for Fe(TASO) with and without HSA measured at 4.7 T and 9.4 T, pH 7.2 and 37° C. compared to Gd(DTPA).

[4] = Log P octanol/water partition coefficient; format: physicochemical
[5] = Effective magnetic moment by Evans method; format: physicochemical; conditions: aqueous solution
Experimental: Magnetic moments. Samples for studies of magnetic moment by using the Evans method were prepared using a coaxial NMR insert which contained the diamagnetic standard of 5% t-butanol in D2O. The outer 5 mm NMR tube contained 5 mM paramagnetic complex with fixed concentrations; 4 mM, 8 mM, 40 mM, and 70 mM in presence of 5% t-butanol. The effective magnetic moment (μeff, BM) was calculated by using a modified Evans method for small molecules at 298 K (T).

[6] = 4.7 T, pH 7.2, 37° C., without HSA
[7] = neutral pH, HEPES buffer, 4.7 Tesla MRI scanner
[8] = with human serum albumin, neutral pH, HEPES buffer, 4.7 Tesla

SMILES: O=C([O-])CN(CCN(CC(=O)[O-])CC(=O)[O-])CC(=O)[O-].[Fe+3] [[Fe(EDTA)]^−]
- Benzoate oxidation / ROS production (in words) [1]: produces ROS
- Benzoate oxidation relative to [Fe(EDTA)]− ([1]; reference set at 100%): 100%
- redox potential [2]: approximately 300 mV

SMILES: CNC[C@H](O)[C@@H](O)[C@H](O)[C@H](O)CO.CNC[C@H](O)[C@@H](O)[C@H](O)[C@H](O)CO.O=C([O-])CN(CCN(CC(=O)[O-])CC(=O)O)CCN(CC(=O)[O-])CC(=O)O.[Gd+3] [Gd(DTPA), gadopentetate dimeglumine, reference compound]
- r1 4.7 T [3, 6]: 3.1 ± 0.31 mM⁻¹ s⁻¹
- r2 4.7 T [3, 6]: 3.9 ± 0.39 mM⁻¹ s⁻¹
- r1 in HSA 4.7 T ([3]; in HSA, 4.7 T, pH 7.2, 37° C.): 3.2 ± 0.32 mM⁻¹ s⁻¹
- r2 in HSA 4.7 T ([3]; in HSA, 4.7 T, pH 7.2, 37° C.): 4.0 ± 0.40 mM⁻¹ s⁻¹

SMILES: O=P([O-])(CN1CCN(CP(=O)([O-])c2ccccc2)CCN(CP(=O)([O-])c2ccccc2)CC1)c1ccccc1.[Fe+3] [Fe(TRAP-Ph)]
- r1 [3, 7]: 2.9 mM⁻¹ s⁻¹
- r1 with HSA [3, 8]: 3.5 mM⁻¹ s⁻¹

SMILES: O=P([O-])(O)CN1CCN(CP(=O)([O-])O)CCN(CP(=O)([O-])O)CC1.[Fe+3] [Fe(NOTP)]
- r1 ([3]; FIG. 11, 4.7 Tesla): 0.66 ± 0.01 mM⁻¹ s⁻¹
- r1 with HSA ([3]; FIG. 11, with HSA, 4.7 Tesla): 1.04 ± 0.06 mM⁻¹ s⁻¹
- r1 [3, 7]: 0.66 mM⁻¹ s⁻¹
- r1 with HSA [3, 8]: 1.0 mM⁻¹ s⁻¹
- Log P octanol/water [4]: −2.02±0.30
- effective magnetic moment μeff [5]: 5.85±0.14 BM
